Results published in patent US6737383B1, “Herbicidal oxadiazolidines” (priority 1999, dated 2004).

How the values were obtained:
purple nutsedge = assay: Test B pre/postemergence purple nutsedge; type: in vivo, Cyperus rotundus
Summary of the method: (§1)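 Response is a visual 0-to-10 score relative to untreated plants, where 0 means no effect and 10 means complete control, taken twelve to sixteen days after application. Treatments went onto soil at planting and onto foliage of 1- to 4-leaf plants, using a surfactant-containing non-phytotoxic solvent.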

rape = assay: Test B pre/postemergence rape; type: in vivo, Brassica napus
Summary of the method: as §1

wild oat = assay: Test B pre/postemergence wild oat; type: in vivo, Avena fatua
Summary of the method: as §1

soybean = assay: Test B pre/postemergence soybean; type: in vivo, Glycine max
Summary of the method: as §1

velvetleaf = assay: Test B pre/postemergence velvetleaf; type: in vivo, Abutilon theophrasti
Summary of the method: as §1

blackgrass = assay: Test B pre/postemergence blackgrass; type: in vivo, Alopecurus myosuroides
Summary of the method: as §1

bedstraw = assay: Test B pre/postemergence bedstraw; type: in vivo, Galium aparine; conditions: Preemergence; for Bedstraw plant response rating: scale 0 to 10, 0 is no effect, 10 is complete control
Summary of the method: as §1

pigweed = assay: Test B pre/postemergence pigweed; type: in vivo, Amaranthus retroflexus
Summary of the method: as §1

corn = assay: Test B pre/postemergence corn; type: in vivo, Zea mays
Summary of the method: as §1

sugar beet = assay: Test B pre/postemergence sugar beet; type: in vivo, Beta vulgaris
Summary of the method: as §1

wheat = assay: Test B pre/postemergence wheat; type: in vivo, Triticum aestivum
Summary of the method: as §1

giant foxtail = assay: Test B pre/postemergence giant foxtail; type: in vivo, Setaria faberii
Summary of the method: as §1

crabgrass = assay: Test B pre/postemergence crabgrass; type: in vivo, Digitaria sanguinalis
Summary of the method: as §1

surinam grass = assay: Test B pre/postemergence surinam grass; type: in vivo, Brachiaria decumbens
Summary of the method: as §1

morningglory = assay: Test B pre/postemergence morningglory; type: in vivo, Ipomoea hederacea
Summary of the method: as §1

cocklebur = assay: Test B pre/postemergence cocklebur; type: in vivo, Xanthium strumarium
Summary of the method: as §1

[1] = Postemergence, Rate 62 g/ha, scale of 0 to 10, 0 is no effect, 10 is complete control
[2] = Postemergence, Rate 125 g/ha, scale 0 to 10, 0 is no effect, 10 is complete control
[3] = Postemergence, Rate 500 g/ha, scale 0 to 10, 0 is no effect, 10 is complete control
[4] = Preemergence, Rate 62 g/ha, scale of 0 to 10 where 0 is no effect and 10 is complete control
[5] = Preemergence, Rate 125 g/ha, scale 0 to 10, 0 is no effect, 10 is complete control
[6] = Preemergence, Rate 500 g/ha, scale of 0 to 10 where 0 is no effect and 10 is complete control
[7] = Rate 250 g/ha, Postemergence, scale of 0 to 10 where 0 is no effect and 10 is complete control

CC(C)N(C(=O)n1oc(=O)n(COCc2ccccc2)c1=O)c1ccc(F)cc1F [Compound 520]
Nutsedge plant response rating (purple nutsedge; [1]): 0 | Nutsedge plant response rating (purple nutsedge; [2]): 0 | Plant response rating, Nutsedge (purple nutsedge; [3]): 0 | Plant response rating, Nutsedge (purple nutsedge; [4]): 0 | Nutsedge plant response rating (purple nutsedge; [5]): 0 | Nutsedge plant response rating (0 to 10 scale) (purple nutsedge; Preemergence, Rate 250 g/ha): 0 | Nutsedge plant response rating (purple nutsedge; [6]): 0 | Plant response rating, Nutsedge (purple nutsedge; [7]): 0 | Rape plant response rating (rape; [1]): 0 | Rape plant response rating (rape; [2]): 0 | Plant response rating, Rape (rape; [3]): 9 | Plant response rating, Rape (rape; [4]): 0 | Rape plant response rating (rape; [5]): 0 | Rape plant response rating (0 to 10 scale) (rape; Preemergence, Rate 250 g/ha): 0 | Rape plant response rating (rape; [6]): 0 | Plant response rating, Rape (rape; [7]): 0 | Wild oats plant response rating (wild oat; [1]): 0 | Wild oats plant response rating (wild oat; [2]): 0 | Plant response rating, Wild oats (wild oat; [3]): 0 | Plant response rating, Wild oats (wild oat; [4]): 0 | Wild oats plant response rating (wild oat; [5]): 0 | Wild oats plant response rating (0 to 10 scale) (wild oat; Preemergence, Rate 250 g/ha): 0 | Wild oats plant response rating (wild oat; [6]): 0 | Plant response rating, Wild oats (wild oat; [7]): 0 | Soybean plant response rating (soybean; [1]): 2 | Soybean plant response rating (soybean; [2]): 4 | Plant response rating, Soybean (soybean; [3]): 4 | Plant response rating, Soybean (soybean; [4]): 0 | Soybean plant response rating (soybean; [5]): 0 | Soybean plant response rating (0 to 10 scale) (soybean; Preemergence, Rate 250 g/ha): 0 | Soybean plant response rating (soybean; [6]): 0 | Plant response rating, Soybean (soybean; [7]): 4 | Velvetleaf plant response rating (velvetleaf; [1]): 3 | Velvetleaf plant response rating (velvetleaf; [2]): 4 | Plant response rating, Velvetleaf (velvetleaf; [3]): 6 | Plant response rating, Velvetleaf (velvetleaf; [4]): 0 | Velvetleaf plant response rating (velvetleaf; [5]): 0 | Velvetleaf plant response rating (0 to 10 scale) (velvetleaf; Preemergence, Rate 250 g/ha): 0 | Velvetleaf plant response rating (velvetleaf; [6]): 0 | Plant response rating, Velvetleaf (velvetleaf; [7]): 4 | Blackgrass plant response rating (blackgrass; [1]): 0 | Blackgrass plant response rating (blackgrass; [2]): 0 | Plant response rating, Blackgrass (blackgrass; [3]): 6 | Plant response rating, Blackgrass (blackgrass; [4]): 0 | Blackgrass plant response rating (blackgrass; [5]): 0 | Blackgrass plant response rating (0 to 10 scale) (blackgrass; Preemergence, Rate 250 g/ha): 0 | Blackgrass plant response rating (blackgrass; [6]): 0 | Plant response rating, Blackgrass (blackgrass; [7]): 0 | Plant response rating, Bedstraw (bedstraw; Rate 62 g/ha, scale of 0 to 10 where 0 is no effect and 10 is complete control): 0 | Bedstraw plant response rating (bedstraw; Rate 125 g/ha): 0 | Bedstraw plant response rating (0 to 10 scale) (bedstraw; Rate 250 g/ha): 0 | Bedstraw plant response rating (bedstraw; Rate 500 g/ha): 0 | Redroot pigweed plant response rating (pigweed; [1]): 0 | Redroot pigweed plant response rating (pigweed; [2]): 3 | Plant response rating, Redroot pigweed (pigweed; [3]): 0 | Plant response rating, Redroot pigweed (pigweed; [4]): 0 | Redroot pigweed plant response rating (pigweed; [5]): 0 | Redroot pigweed plant response rating (0 to 10 scale) (pigweed; Preemergence, Rate 250 g/ha): 0 | Redroot pigweed plant response rating (pigweed; [6]): 0 | Corn plant response rating (corn; [1]): 0 | Corn plant response rating (corn; [2]): 0 | Plant response rating, Corn (corn; [3]): 0 | Plant response rating, Corn (corn; [4]): 0 | Corn plant response rating (corn; [5]): 0 | Corn plant response rating (0 to 10 scale) (corn; Preemergence, Rate 250 g/ha): 0 | Corn plant response rating (corn; [6]): 0 | Plant response rating, Corn (corn; [7]): 0 | Sugarbeets plant response rating (sugar beet; [1]): 0 | Sugarbeets plant response rating (sugar beet; [2]): 0 | Plant response rating, Sugarbeets (sugar beet; [3]): 2 | Plant response rating, Sugarbeets (sugar beet; [4]): 0 | Sugarbeets plant response rating (sugar beet; [5]): 0 | Sugarbeets plant response rating (0 to 10 scale) (sugar beet; Preemergence, Rate 250 g/ha): 0 | Sugarbeets plant response rating (sugar beet; [6]): 0 | Plant response rating, Sugarbeets (sugar beet; [7]): 0 | Wheat plant response rating (wheat; [1]): 0 | Wheat plant response rating (wheat; [2]): 0 | Plant response rating, Wheat (wheat; [3]): 0 | Plant response rating, Wheat (wheat; [4]): 0 | Wheat plant response rating (wheat; [5]): 0 | Wheat plant response rating (0 to 10 scale) (wheat; Preemergence, Rate 250 g/ha): 0 | Wheat plant response rating (wheat; [6]): 0 | Plant response rating, Wheat (wheat; [7]): 0 | Giant foxtail plant response rating (giant foxtail; [1]): 2 | Giant foxtail plant response rating (giant foxtail; [2]): 4 | Plant response rating, Giant foxtail (giant foxtail; [3]): 9 | Plant response rating, Giant foxtail (giant foxtail; [4]): 9 | Giant foxtail plant response rating (giant foxtail; [5]): 10 | Giant foxtail plant response rating (0 to 10 scale) (giant foxtail; Preemergence, Rate 250 g/ha): 10 | Giant foxtail plant response rating (giant foxtail; [6]): 10 | Plant response rating, Giant foxtail (giant foxtail; [7]): 4 | Crabgrass plant response rating (crabgrass; [1]): 2 | Crabgrass plant response rating (crabgrass; [2]): 3 | Plant response rating, Crabgrass (crabgrass; [3]): 9 | Plant response rating, Crabgrass (crabgrass; [4]): 9 | Crabgrass plant response rating (crabgrass; [5]): 9 | Crabgrass plant response rating (0 to 10 scale) (crabgrass; Preemergence, Rate 250 g/ha): 10 | Crabgrass plant response rating (crabgrass; [6]): 10 | Plant response rating, Crabgrass (crabgrass; [7]): 4 | B. signalgrass plant response rating (surinam grass; [1]): 0 | B. signalgrass plant response rating (surinam grass; [2]): 0 | Plant response rating, B. signalgrass (surinam grass; [3]): 2 | Plant response rating, B. signalgrass (surinam grass; [4]): 0 | B. signalgrass plant response rating (surinam grass; [5]): 0 | B. signalgrass plant response rating (0 to 10 scale, 0 is no effect, 10 is complete control) (surinam grass; Preemergence, Rate 250 g/ha): 0 | B. signalgrass plant response rating (surinam grass; Preemergence, Rate 500 g/ha, scale 0 to 10, 0 is no effect, 10 is complete control): 0 | Plant response rating, B. signalgrass (surinam grass; [7]): 0 | Morningglory plant response rating (morningglory; [1]): 3 | Morningglory plant response rating (morningglory; [2]): 4 | Plant response rating, Morningglory (morningglory; [3]): 10 | Plant response rating, Morningglory (morningglory; [4]): 0 | Morningglory plant response rating (morningglory; [5]): 0 | Morningglory plant response rating (0 to 10 scale) (morningglory; Preemergence, Rate 250 g/ha): 0 | Morningglory plant response rating (morningglory; [6]): 0 | Plant response rating, Morningglory (morningglory; [7]): 4 | Cocklebur plant response rating (cocklebur; [1]): 0 | Cocklebur plant response rating (cocklebur; [2]): 0 | Plant response rating, Cocklebur (cocklebur; [3]): 0 | Plant response rating, Cocklebur (cocklebur; [4]): 0 | Cocklebur plant response rating (cocklebur; [5]): 0 | Cocklebur plant response rating (0 to 10 scale) (cocklebur; Preemergence, Rate 250 g/ha): 0 | Cocklebur plant response rating (cocklebur; [6]): 0 | Plant response rating, Cocklebur (cocklebur; [7]): 0
